{"source": "patent US5556744A", "about": "“Methods and compositions for diagnosing and treating certain HIV infected patients” (The Trustees of the University of Pennsylvania, priority 1994, dated 1996)", "tested_on": "maternal HIV+ sera (antibodies)", "test": "RIA / ELISA binding of maternal HIV+ sera to gp120 and gp41 peptides (Example 3)", "set-up": "species or system human", "method_in_brief": "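Peptides were coated at 10 μg/ml in carbonate buffer pH 9.6 and blocked with 1% BSA. Sera at 1:50 and 1:500 were incubated overnight at 4°C and detected with ¹²⁵I anti-human IgG (RIA) or HRP/TMB at OD450 (ELISA). Specific binding was taken as peptide minus no-peptide wells, scored as a ratio to normal human serum.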"}
{"sequence": "ASWSNKSLEQIWNNM [Peptide 36]", "values": [{"measurement": "Binding of maternal HIV+ serum to peptide (sera/NHS ratio)", "setting": "Serum No. 1, Non-Transmission Group", "value": "- (specific OD450 or cpm of sera sample binding to peptide divided by the specific OD450 or cpm of NHS sample binding to peptide, which value is less than 2)"}, {"measurement": "Binding of maternal HIV+ serum to peptide (sera/NHS ratio)", "setting": "Serum No. 2, Non-Transmission Group", "value": "- (specific OD450 or cpm of sera sample binding to peptide divided by the specific OD450 or cpm of NHS sample binding to peptide, which value is less than 2)"}, {"measurement": "Binding of maternal HIV+ serum to peptide (sera/NHS ratio)", "setting": "Serum No. 3, Non-Transmission Group", "value": "- (specific OD450 or cpm of sera sample binding to peptide divided by the specific OD450 or cpm of NHS sample binding to peptide, which value is less than 2)"}, {"measurement": "Binding of maternal HIV+ serum to peptide (sera/NHS ratio)", "setting": "Serum No. 4, Transmission Group", "value": "- (specific OD450 or cpm of sera sample binding to peptide divided by the specific OD450 or cpm of NHS sample binding to peptide, which value is less than 2)"}, {"measurement": "Binding of maternal HIV+ serum to peptide (sera/NHS ratio)", "setting": "Serum No. 5, Transmission Group", "value": "- (specific OD450 or cpm of sera sample binding to peptide divided by the specific OD450 or cpm of NHS sample binding to peptide, which value is less than 2)"}, {"measurement": "Binding of maternal HIV+ serum to peptide (sera/NHS ratio)", "setting": "Serum No. 6, Non-Transmission Group", "value": "- (specific OD450 or cpm of sera sample binding to peptide divided by the specific OD450 or cpm of NHS sample binding to peptide, which value is less than 2)"}, {"measurement": "Binding of maternal HIV+ serum to peptide (sera/NHS ratio)", "setting": "Serum No. 7, Non-Transmission Group", "value": "- (specific OD450 or cpm of sera sample binding to peptide divided by the specific OD450 or cpm of NHS sample binding to peptide, which value is less than 2)"}, {"measurement": "Binding of maternal HIV+ serum to peptide (sera/NHS ratio)", "setting": "Serum No. 8, Non-Transmission Group", "value": "- (specific OD450 or cpm of sera sample binding to peptide divided by the specific OD450 or cpm of NHS sample binding to peptide, which value is less than 2)"}, {"measurement": "Binding of maternal HIV+ serum to peptide (sera/NHS ratio)", "setting": "Serum No. 9, Non-Transmission Group", "value": "- (specific OD450 or cpm of sera sample binding to peptide divided by the specific OD450 or cpm of NHS sample binding to peptide, which value is less than 2)"}, {"measurement": "Binding of maternal HIV+ serum to peptide (sera/NHS ratio)", "setting": "Serum No. 10, Transmission Group", "value": "- (specific OD450 or cpm of sera sample binding to peptide divided by the specific OD450 or cpm of NHS sample binding to peptide, which value is less than 2)"}, {"measurement": "Binding of maternal HIV+ serum to peptide (sera/NHS ratio)", "setting": "Serum No. 11, Non-Transmission Group", "value": "- (specific OD450 or cpm of sera sample binding to peptide divided by the specific OD450 or cpm of NHS sample binding to peptide, which value is less than 2)"}, {"measurement": "Binding of maternal HIV+ serum to peptide (sera/NHS ratio)", "setting": "Serum No. 12, Non-Transmission Group", "value": "- (specific OD450 or cpm of sera sample binding to peptide divided by the specific OD450 or cpm of NHS sample binding to peptide, which value is less than 2)"}, {"measurement": "Binding of maternal HIV+ serum to peptide (sera/NHS ratio)", "setting": "Serum No. 13, Transmission Group", "value": "- (specific OD450 or cpm of sera sample binding to peptide divided by the specific OD450 or cpm of NHS sample binding to peptide, which value is less than 2)"}, {"measurement": "Binding of maternal HIV+ serum to peptide (sera/NHS ratio)", "setting": "Serum No. 14, Transmission Group", "value": "- (specific OD450 or cpm of sera sample binding to peptide divided by the specific OD450 or cpm of NHS sample binding to peptide, which value is less than 2)"}, {"measurement": "Binding of maternal HIV+ serum to peptide (sera/NHS ratio)", "setting": "Serum No. 15, Transmission Group", "value": "- (specific OD450 or cpm of sera sample binding to peptide divided by the specific OD450 or cpm of NHS sample binding to peptide, which value is less than 2)"}, {"measurement": "Binding of maternal HIV+ serum to peptide (sera/NHS ratio)", "setting": "Serum No. 16, Non-Transmission Group", "value": "- (specific OD450 or cpm of sera sample binding to peptide divided by the specific OD450 or cpm of NHS sample binding to peptide, which value is less than 2)"}, {"measurement": "Binding of maternal HIV+ serum to peptide (sera/NHS ratio)", "setting": "Serum No. 17, Non-Transmission Group", "value": "- (specific OD450 or cpm of sera sample binding to peptide divided by the specific OD450 or cpm of NHS sample binding to peptide, which value is less than 2)"}, {"measurement": "Binding of maternal HIV+ serum to peptide (sera/NHS ratio)", "setting": "Serum No. 18, Non-Transmission Group", "value": "- (specific OD450 or cpm of sera sample binding to peptide divided by the specific OD450 or cpm of NHS sample binding to peptide, which value is less than 2)"}, {"measurement": "Binding of maternal HIV+ serum to peptide (sera/NHS ratio)", "setting": "Serum No. 19, Transmission Group", "value": "- (specific OD450 or cpm of sera sample binding to peptide divided by the specific OD450 or cpm of NHS sample binding to peptide, which value is less than 2)"}, {"measurement": "Binding of maternal HIV+ serum to peptide (sera/NHS ratio)", "setting": "Serum No. 20, Non-Transmission Group", "value": "- (specific OD450 or cpm of sera sample binding to peptide divided by the specific OD450 or cpm of NHS sample binding to peptide, which value is less than 2)"}]}
